Paper PMC10939466, “A transferrin receptor targeting dual-modal MR/NIR fluorescent imaging probe for glioblastoma diagnosis” (Regenerative Biomaterials, 2024)
Square brackets hold non-standard residues; d marks the D form. Peptide text beside a SMILES is read from it.

Columns and labels:
[1] = Cellular uptake of the peptides; type: cell-based
[2] = test system: BBB model in vitro (bEnd.3 cells co-cultured with U87-MG cells); assay: Sodium fluorescein permeability of the in vitro BBB model; type: in vitro ADME; conditions: transwell 3 µm pore, 0.33 cm^2, bEnd.3 upper / U87-MG lower chamber; NaFl 10 µg/mL; 30, 60, 90 min; 37°C; fluorescence 485/535 nm
Protocol: A primary BBB model using bEnd.3 cells in vitro was established to evaluate the penetration ability of ^DTHR-Cy7-PEG-DSPE-SPIONs. The inner side of a polycarbonate transwell (Millipore, USA) with a mean pore size of 3 µm and a surface area of 0.33 cm^2 was coated with collagen. After coating, the transwell was left to air dry for 30 min. Then, bEnd.3 cells (5 × 10^4 cells per well) were seeded into the upper chamber of a 24-well transwell plate. After 48 h, 1 × 10^5 U87-MG cells were seeded in the lower chamber of each well. Both cells were co-cultured for 1 week.
The endothelial permeability coefficient of sodium fluorescein (NaFl) was used to evaluate the function of BBB model in vitro, as previously described. In brief, 200 µL NaFl solution (10 µg/mL) and 900 µL PBS were added to the upper and lower chambers of the BBB models, respectively. And then cultured in a 5% CO2 atmosphere at 37°C. Following incubation periods of 30, 60 and 90 min, 100 µL samples from the lower chambers were transferred to a new 96-well plate. […] Finally, the relative fluorescence intensity of the samples was measured using a multi-detector monochromator microplate reader (485/535 nm), with NaFl concentration deduced from a standard curve. The apparent permeability coefficient (Papp) was calculated using the formula: Papp=dQ/dt×1/(A×C0). […]

| SMILES | cellular uptake compared to THR [1] | Papp of NaFl, BBB model [2] |
| --- | --- | --- |
| CSCC[C@@H](NC(=O)[C@@H](Cc1c[nH]c2ccccc12)NC(=O)[C@@H](CO)NC(=O)[C@H]1CCCN1C(=O)[C@H](NC(=O)[C@@H](Cc1c[nH]c2ccccc12)NC(=O)[C@H]1CCCN1C(C)=O)C(C)C)C(=O)N1CCC[C@@H]1C(=O)N1CCC[C@@H]1C(=O)N[C@H](CCCNC(=N)N)C(=O)N[C@H](Cc1c[nH]cn1)C(=O)N[C@@H](C(=O)O)[C@H](C)O [^DTHR, Ac-pwvpswmpprht-COOH] (Ac-[dP][dW][dV][dP][dS][dW][dM][dP][dP][dR][dH][dT]-OH) | lower cellular uptake |  |
| O=C([O-])c1ccccc1-c1c2ccc(=O)cc-2oc2cc([O-])ccc12.[Na+].[Na+] [NaFl, sodium fluorescein] |  | 11.24 ± 0.73 ×10^−6 cm/s |
